# Test results published in article PMC3516535, “Rhesus Macaque Theta Defensins Suppress Inflammatory Cytokines and Enhance Survival in Mouse Models of Bacteremic Sepsis” (PLoS ONE, 2012).
# Read-outs that look alike come from different tables or passages of the source. Bridge positions count the residues as written; N and C are the ends. Peptide text beside a SMILES is read from it.
# Tests used:
# BALB/c mice = assay: Mouse exposure study, repeated subcutaneous injection; assay type: in vivo
# Experimental: Twenty four h after the fourth injection, mice were euthanized with CO2, blood was collected by cardiac puncture, and tissues were harvested and fixed in 10% buffered formalin. Histopathologic examination was performed on sections of heart, lung, liver, spleen, kidney, and injection site skin and subcutaneous tissue. A basic metabolic panel (UC Davis-William R. Pritchard Veterinary Medical Teaching Hospital) was performed on serum samples obtained by cardiac puncture at the time of euthanasia.
# [1] = system: leukocytes / target cells; assay: Cytotoxicity by trypan blue staining in the in vitro incubations; assay type: cell-based, human; conditions: TNF release incubations in blood, 4 h
# [2] = ref D. Tran & M.E. Selsted, unpublished data, cited from earlier work
# [3] = system: SARS-coronavirus (SARS-CoV); conditions: cited from earlier work
# host cells = conditions: cited from earlier work
# Text: The only detected tissue effect as ...
# [4] = system: human EDTA-anti-coagulated blood diluted 1∶10; assay: TNF release assay in stimulated diluted whole blood (ELISA); assay type: cell-based
# [5] = LPS neutralization assay (Limulus amoebocyte lysate); assay type: biochemical, Escherichia coli; conditions: LAL assay, 0–10 µg/ml, N = 4
# Experimental: To each sample 25 µl of Limulus amoebocyte lysate (LAL; Lonza) was added and incubated for 10 min at 37°C after which 100 µl of LAL substrate was added and incubated for 6 min at 37°C. Reactions were quenched with 50 µl of 25% HOAc and read spectrophotometrically at 405 nm.
# [6] = mouse whole blood, data not shown
# [7] = system: BALB/c mice challenged with E. coli K12; conditions: 8×10^8 CFU E. coli K12 i.p., single s.c. dose 5 mg/kg at challenge, n = 13
# [8] = system: BALB/c mice with CLP polymicrobial sepsis; assay: Cecal-ligation/puncture (CLP) induced sepsis; assay type: in vivo, mouse
# Experimental: Polymicrobial peritonitis was induced in 6–8 week old BALB/c mice by CLP as described, [21]. Briefly, laparotomy was performed on anesthetized animals and the cecum was ligated below the ileocecal valve. Both walls of the cecum were punctured twice with an 18-gauge needle, and the surgical wound closed with 3–0 nylon suture. All animals fully recovered within 60 min. […] Animal health was evaluated daily for 28 days. As above, mice were euthanized when they became moribund.
# [9] = rat whole blood, data not shown
# E. coli = assay: Killing of E. coli during pre-incubation with peptide; assay type: cell-based, Escherichia coli; conditions: 100 CFU/ml E. coli, 10 µg/ml peptide in RPMI
# [10] = human whole blood, data not shown
# THP-1 monocytic cells = assay: TNF release assay in LPS-stimulated THP-1 monocytes (ELISA); assay type: cell-based, human; conditions: THP-1 in RPMI +5% human EDTA-plasma, 1 ng/ml K12 LPS, 4 h, N = 2
# Experimental: THP-1 monocytic cells (ATCC, Manassas, VA) were grown and maintained in RPMI-1640 medium containing 10% fetal bovine serum and penicillin/streptomycin. Cells were harvested by centrifugation, washed with RPMI-1640 medium and suspended at 5×10^5 cells/ml in fresh medium containing 5% human EDTA plasma.
# Peptides (RTDs 1–5, human neutrophil α-defensins) were aliquoted into wells of pyrogen-free 12- or 24-well plates wherein final peptide concentrations were 0–10 µg/ml. Wells were inoculated with 1×10^5 CFU/ml S. aureus or 100 CFU/ml E. coli, or 1–3 ng/ml of E. coli K12 LPS. Samples (5–10 µl) containing peptide or bacteria/LPS were placed on opposite sides of the plate well. Mixing commenced with the addition of 0.5 to 2.0 ml of 1∶10 diluted blood, PBLs (5×10^5/ml), or THP-1 cells (2–5×10^5 cells/ml). Plates were incubated at 37°C in 5% CO2 for 4 h with gentle mixing. […] Incubation mixtures were centrifuged at 200× g for 10 min at 22°C and supernatants were clarified by centrifugation at 23,000× g for 15 min at 4°C. Supernatant TNF was quantified by sandwich ELISA (OptEIA II; BD Biosciences; Hu TNF-α, Invitrogen) per suppliers’ directions, using a SpectraMax Plate Reader.
# [11] = system: human peripheral blood leukocytes (PBL); assay: Cytokine/chemokine release by TLR agonist-stimulated peripheral blood leukocytes (Milliplex); assay type: cell-based
# Experimental: EDTA-anticoagulated blood was obtained from healthy adult volunteers as approved by the Institutional Review Board at USC (protocol # HS-09-00280). Peripheral blood leukocytes (PBL) were harvested from 10–15 ml whole blood after centrifugation at 200× g. Cells were washed twice with 3–5 ml of RPMI, counted with a hemocytometer, and suspended to a cell density of 5×10^5 cells/ml in RPMI +5% human EDTA-plasma. PBLs were stimulated for 4 h with either 0.9 µg/ml ssRNA40, 30 ng/ml S. typhimurium flagellin, 3.3×10^7 CFU/ml heat-killed L. monocytogenes (HKLM), 3 ng/ml E. coli K12 LPS, or 100 CFU/ml of the clinical E. coli isolate. Cytokines/chemokines were quantified using a Milliplex MAP kit on a BioRad Bioplex HTF Luminex reader at the Beckman Center for Immune Monitoring at USC-Norris Cancer Center.
# in vitro = conditions: human, EDTA plasma
# DA rats = system: DA rats; parameters: method as in Schaal et. al, manuscript in preparation; conditions: repetitive (8–15 injections) s.c. challenge, after 8 weeks; ref Schaal et. al, manuscript in preparation; cited from earlier work
# [12] = PBL stimulated 4 h with 0.9 µg/ml ssRNA40 (TLR8 agonist), simultaneous addition of 10 µg/ml peptide
smiles,measurement,setting,value
"CC[C@H](C)[C@@H]1NC(=O)[C@@H]2CSSC[C@H](NC(=O)[C@H](CCCNC(=N)N)NC(=O)[C@@H]3CSSC[C@H](NC1=O)C(=O)N[C@@H]([C@@H](C)O)C(=O)N[C@@H](CCCNC(=N)N)C(=O)NCC(=O)N[C@@H](Cc1ccccc1)C(=O)N3)C(=O)N[C@@H](CC(C)C)C(=O)N[C@H]1CSSC[C@H](NC(=O)[C@H](C(C)C)NC(=O)CNC(=O)[C@H](CCCNC(=N)N)NC(=O)[C@H](CCCNC(=N)N)NC1=O)C(=O)N[C@@H](CCCNC(=N)N)C(=O)N2 [RTD-1] (cyclo(GFCRCLCRRGVCRCICTR); disulfide 3-16, 5-14, 7-12)","incidence of focal, non-erythematous swelling at injection site","BALB/c mice; 40 mg/kg s.c. daily, at day 4",2/4
same,"incidence of focal, non-erythematous swelling at injection site","BALB/c mice; 160 mg/kg s.c. daily, by day 3",4/4
same,"histopathology of lungs, kidneys, heart, liver, spleen","BALB/c mice; after 4 day dosing regimen, all peptide levels tested",no abnormalities
same,serum chemistries,"BALB/c mice; daily s.c. injections for 4 days, 2.5–160 mg/kg, basic metabolic panel",indistinguishable from saline-treated controls
same,acute toxicity,"BALB/c mice; daily s.c. injections for 4 days, up to 160 mg/kg (highest dose tested), groups of four",no acute toxicity was observed
same,lobular panniculitis with fat necrosis at injection site,BALB/c mice; multiple injections of 2.5 or 10 mg/kg,absent
same,cytotoxicity (trypan blue staining of leukocytes),[1],no cytotoxicity was detected
same,stability to heating,"[2]; 100°C, 30 min",completely stable
same,stability to extended storage at pH 2.0,[2]; pH 2.0,completely stable
same,virus neutralization in vitro,[3],did not neutralize the virus
same,toxicity to host cells in vitro,host cells,non-toxic
same,blockade of TNF release,"[4]; E. coli pre-treated with 10 µg/ml peptide for 0–120 min before addition of blood, 4 h, all time-points",complete blockade
same,hierarchy of anti-TNF potencies,"[4]; E. coli-stimulated blood, 4 h, N = 2",RTD-5>2>1>4>3
same,effect of peptide alone on TNF release,"[4]; blood incubated 4 h with peptide alone, no stimulus",no effect
same,effectiveness in neutralizing E. coli LPS relative to polymyxin B (fold less effective),[5]; 10 min 37°C,50–100 fold
same,neutralization of E. coli LPS,[5],ineffective in neutralizing
same,time highly stable in whole blood,[6],at least 24 h
same,survival,[7],significantly improved survival
same,long term survival,"[8]; single i.v. dose administered 4 h after CLP surgery, 28 days",10 of 11
same,recovery / survival,"[8]; single i.v. dose delayed until 24 h post CLP, through end of trial",4 of 5
same,time highly stable in whole blood,[9],at least 24 h
same,time to killing of E. coli (absence of viable bacteria),E. coli,≤ 30 min
same,time highly stable in whole blood,[10],at least 24 h
same,hierarchy of anti-TNF potencies,THP-1 monocytic cells,RTD-5>2>1>4>3
same,"effect on induced levels of chemokines CXCL8 (IL-8), CCL2 (MCP-1), CCL3 (MIP-1α), CCL4 (MIP-1β)","[11]; HKLM-stimulated PBL, 10 µg/ml peptide, 4 h",no suppression
same,suppression of supernatant IL-1β level,[11]; [12],95%
same,suppression of supernatant IL-8 level,[11]; [12],68%
same,effect on VEGF-A,[11]; RTD-1 treatment of PBLs,reproducible elevation
same,effect of peptide alone on cytokine/chemokine release,"[11]; unstimulated leukocytes, 10 µg/ml peptide alone, exception VEGF and to a lesser degree CCL2 (MCP-1)",little effect
same,"remaining at 72 h, 50 µg/ml",in vitro,93%
same,anti-RTD-1 antibody,DA rats,no anti-RTD-1 antibody
